Key:
[1] = system: Mycobacterium tuberculosis; assay: Antimycobacterial activity against Mycobacterium tuberculosis H37Rv CNCTC My 331/88 after 14 days by micromethod; format: functional; conditions: H37Rv CNCTC My 331/88, 336 h
[2] = system: Mycobacterium tuberculosis; assay: Antimycobacterial activity against Mycobacterium tuberculosis H37Rv CNCTC My 331/88 after 21 days by micromethod; format: functional; conditions: H37Rv CNCTC My 331/88, 504 h
Mycobacterium avium [3] = assay: Antimycobacterial activity against Mycobacterium avium CNCTC My 330/80 after 14 days by micromethod; format: functional; conditions: CNCTC My 330/80, 336 h
Mycobacterium avium [4] = assay: Antimycobacterial activity against Mycobacterium avium CNCTC My 330/80 after 21 days by micromethod; format: functional; conditions: CNCTC My 330/80, 504 h
Mycobacterium kansasii [5] = assay: Antimycobacterial activity against Mycobacterium kansasii CNCTC My 235/80 after 7 days by micromethod; format: functional; conditions: CNCTC My 235/80, 168 h
Mycobacterium kansasii [6] = assay: Antimycobacterial activity against Mycobacterium kansasii CNCTC My 235/80 after 14 days by micromethod; format: functional; conditions: CNCTC My 235/80, 336 h
Mycobacterium kansasii [7] = assay: Antimycobacterial activity against Mycobacterium kansasii CNCTC My 235/80 after 21 days by micromethod; format: functional; conditions: CNCTC My 235/80, 504 h
Mycobacterium kansasii [8] = assay: Antimycobacterial activity against Mycobacterium kansasii isolate 6509/96 after 7 days by micromethod; format: functional; conditions: isolate 6509/96, 168 h
Mycobacterium kansasii [9] = assay: Antimycobacterial activity against Mycobacterium kansasii isolate 6509/96 after 14 days by micromethod; format: functional; conditions: isolate 6509/96, 336 h
Mycobacterium kansasii [10] = assay: Antimycobacterial activity against Mycobacterium kansasii isolate 6509/96 after 21 days by micromethod; format: functional; conditions: isolate 6509/96, 504 h
CHO-K1 = assay: Cytotoxicity against CHOK1 cells after 24 hrs by MTT assay; format: cell-based; conditions: Cricetulus griseus, CHO-K1, 24 h
Staphylococcus aureus [11] = assay: Antibacterial activity against Staphylococcus aureus ATCC 6538 after 24 hrs by broth microdilution method; format: functional; conditions: ATCC 6538, 24 h
Staphylococcus aureus [12] = assay: Antibacterial activity against Staphylococcus aureus ATCC 6538 after 48 hrs by broth microdilution method; format: functional; conditions: ATCC 6538, 48 h
Staphylococcus aureus [13] = assay: Antibacterial activity against methicillin-resistant Staphylococcus aureus HK5996/08 after 24 hrs by broth microdilution method; format: functional; conditions: HK5996/08, 24 h
Staphylococcus aureus [14] = assay: Antibacterial activity against methicillin-resistant Staphylococcus aureus HK5996/08 after 48 hrs by broth microdilution method; format: functional; conditions: HK5996/08, 48 h
[15] = system: Staphylococcus epidermidis; assay: Antibacterial activity against Staphylococcus epidermidis HK6966/08 after 24 hrs by broth microdilution method; format: functional; conditions: HK6966/08, 24 h
[16] = system: Staphylococcus epidermidis; assay: Antibacterial activity against Staphylococcus epidermidis HK6966/08 after 48 hrs by broth microdilution method; format: functional; conditions: HK6966/08, 48 h
Enterococcus sp. [17] = assay: Antibacterial activity against Enterococcus sp. HK14365/08 after 24 hrs by broth microdilution method; format: functional; conditions: HK14365/08, 24 h
Enterococcus sp. [18] = assay: Antibacterial activity against Enterococcus sp. HK14365/08 after 48 hrs by broth microdilution method; format: functional; conditions: HK14365/08, 48 h
Escherichia coli [19] = assay: Antibacterial activity against Escherichia coli ATCC 8739 after 24 hrs by broth microdilution method; format: functional; conditions: ATCC 8739, 24 h
Escherichia coli [20] = assay: Antibacterial activity against Escherichia coli ATCC 8739 after 48 hrs by broth microdilution method; format: functional; conditions: ATCC 8739, 48 h
Klebsiella pneumoniae [21] = assay: Antibacterial activity against Klebsiella pneumoniae HK11750/08 after 24 hrs by broth microdilution method; format: functional; conditions: HK11750/08, 24 h
Klebsiella pneumoniae [22] = assay: Antibacterial activity against Klebsiella pneumoniae HK11750/08 after 48 hrs by broth microdilution method; format: functional; conditions: HK11750/08, 48 h
Klebsiella pneumoniae [23] = assay: Antibacterial activity against extended spectrum beta-lactamase producing Klebsiella pneumoniae HK14368/08 after 24 hrs by broth microdilution method; format: functional; conditions: HK14368/08, 24 h
Klebsiella pneumoniae [24] = assay: Antibacterial activity against extended spectrum beta-lactamase producing Klebsiella pneumoniae HK14368/08 after 48 hrs by broth microdilution method; format: functional; conditions: HK14368/08, 48 h
Pseudomonas aeruginosa [25] = assay: Antibacterial activity against Pseudomonas aeruginosa ATCC 9027 after 24 hrs by broth microdilution method; format: functional; conditions: ATCC 9027, 24 h
Pseudomonas aeruginosa [26] = assay: Antibacterial activity against Pseudomonas aeruginosa ATCC 9027 after 48 hrs by broth microdilution method; format: functional; conditions: ATCC 9027, 48 h
Candida albicans [27] = assay: Antifungal activity against Candida albicans ATCC 44859 after 24 hrs by broth microdilution method; format: functional; conditions: ATCC 44859, 24 h
Candida albicans [28] = assay: Antifungal activity against Candida albicans ATCC 44859 after 48 hrs by broth microdilution method; format: functional; conditions: ATCC 44859, 48 h
Candida tropicalis [29] = assay: Antifungal activity against Candida tropicalis 156 after 24 hrs by broth microdilution method; format: functional; conditions: Candida tropicalis, 156, 24 h
Candida tropicalis [30] = assay: Antifungal activity against Candida tropicalis 156 after 48 hrs by broth microdilution method; format: functional; conditions: Candida tropicalis, 156, 48 h
Pichia kudriavzevii [31] = assay: Antifungal activity against Candida krusei E28 after 24 hrs by broth microdilution method; format: functional; conditions: E28, 24 h
Pichia kudriavzevii [32] = assay: Antifungal activity against Candida krusei E28 after 48 hrs by broth microdilution method; format: functional; conditions: E28, 48 h
Nakaseomyces glabratus [33] = assay: Antifungal activity against Candida glabrata 20/I after 24 hrs by broth microdilution method; format: functional
Nakaseomyces glabratus [34] = assay: Antifungal activity against Candida glabrata 20/I after 48 hrs by broth microdilution method; format: functional
Trichosporon asahii [35] = assay: Antifungal activity against Trichosporon asahii 1188 after 24 hrs by broth microdilution method; format: functional; conditions: Trichosporon asahii, 1188, 24 h
Trichosporon asahii [36] = assay: Antifungal activity against Trichosporon asahii 1188 after 48 hrs by broth microdilution method; format: functional; conditions: Trichosporon asahii, 1188, 48 h
Aspergillus fumigatus [37] = assay: Antifungal activity against Aspergillus fumigatus 231 after 24 hrs by broth microdilution method; format: functional; conditions: Aspergillus fumigatus, 231, 24 h
Aspergillus fumigatus [38] = assay: Antifungal activity against Aspergillus fumigatus 231 after 48 hrs by broth microdilution method; format: functional; conditions: Aspergillus fumigatus, 231, 48 h
Lichtheimia corymbifera [39] = assay: Antifungal activity against Absidia corymbifera 272 after 24 hrs by broth microdilution method; format: functional; conditions: Lichtheimia corymbifera, 272, 24 h
Lichtheimia corymbifera [40] = assay: Antifungal activity against Absidia corymbifera 272 after 48 hrs by broth microdilution method; format: functional; conditions: Lichtheimia corymbifera, 272, 48 h
[41] = system: Trichophyton mentagrophytes; assay: Antifungal activity against Trichophyton mentagrophytes 445 after 72 hrs by broth microdilution method; format: functional; conditions: Trichophyton mentagrophytes, 445, 72 h
[42] = system: Trichophyton mentagrophytes; assay: Antifungal activity against Trichophyton mentagrophytes 445 after 120 hrs by broth microdilution method; format: functional; conditions: Trichophyton mentagrophytes, 445, 120 h

O=[N+]([O-])c1cc(-c2nnn(Cc3ccccc3F)n2)cc([N+](=O)[O-])c1
> 500 µM: MIC (Enterococcus sp. [17]) | MIC (Enterococcus sp. [18]) | MIC (Escherichia coli [19]) | MIC (Escherichia coli [20]) | MIC (Klebsiella pneumoniae [21]) | MIC (Klebsiella pneumoniae [22]) | MIC (Klebsiella pneumoniae [23]) | MIC (Klebsiella pneumoniae [24]) | MIC (Pseudomonas aeruginosa [25]) | MIC (Pseudomonas aeruginosa [26]) | MIC (Candida albicans [27]) | MIC (Candida albicans [28]) | MIC (Candida tropicalis [29]) | MIC (Candida tropicalis [30]) | MIC (Pichia kudriavzevii [31]) | MIC (Pichia kudriavzevii [32]) | MIC (Nakaseomyces glabratus [33]) | MIC (Nakaseomyces glabratus [34]) | MIC (Trichosporon asahii [35]) | MIC (Trichosporon asahii [36]) | MIC (Aspergillus fumigatus [37]) | MIC (Aspergillus fumigatus [38]) | MIC (Lichtheimia corymbifera [39]) | MIC (Lichtheimia corymbifera [40]) | MIC [41] | MIC [42]
250 µM: MIC [15] | MIC [16]
8 µM: MIC99 (Mycobacterium avium [3])
> 200 µM: IC50 (CHO-K1)
0.5 µM: MIC99 [1] | MIC99 [2] | MIC99 (Mycobacterium kansasii [5])
2 µM: MIC99 (Mycobacterium kansasii [7]) | MIC99 (Mycobacterium kansasii [10])
16 µM: MIC99 (Mycobacterium avium [4])
1 µM: MIC99 (Mycobacterium kansasii [6]) | MIC99 (Mycobacterium kansasii [8]) | MIC99 (Mycobacterium kansasii [9])
500 µM: MIC (Staphylococcus aureus [11]) | MIC (Staphylococcus aureus [12]) | MIC (Staphylococcus aureus [13]) | MIC (Staphylococcus aureus [14])

O=[N+]([O-])c1cc(-c2nnn(CSc3nnnn3-c3ccccc3)n2)cc([N+](=O)[O-])c1
0.5 µM: MIC99 (Mycobacterium kansasii [8])
0.125 µM: MIC99 [1]
1 µM: MIC99 (Mycobacterium kansasii [5]) | MIC99 (Mycobacterium kansasii [9])
0.25 µM: MIC99 [2]
4 µM: MIC99 (Mycobacterium kansasii [7])
2 µM: MIC99 (Mycobacterium kansasii [6]) | MIC99 (Mycobacterium kansasii [10])
> 125 µM: MIC (Staphylococcus aureus [11]) | MIC (Staphylococcus aureus [12]) | MIC (Staphylococcus aureus [13]) | MIC (Staphylococcus aureus [14]) | MIC [15] | MIC [16] | MIC (Enterococcus sp. [17]) | MIC (Enterococcus sp. [18]) | MIC (Escherichia coli [19]) | MIC (Escherichia coli [20]) | MIC (Klebsiella pneumoniae [21]) | MIC (Klebsiella pneumoniae [22]) | MIC (Klebsiella pneumoniae [23]) | MIC (Klebsiella pneumoniae [24]) | MIC (Pseudomonas aeruginosa [25]) | MIC (Pseudomonas aeruginosa [26]) | MIC (Candida albicans [27]) | MIC (Candida albicans [28]) | MIC (Candida tropicalis [29]) | MIC (Candida tropicalis [30]) | MIC (Pichia kudriavzevii [31]) | MIC (Pichia kudriavzevii [32]) | MIC (Nakaseomyces glabratus [33]) | MIC (Nakaseomyces glabratus [34]) | MIC (Trichosporon asahii [35]) | MIC (Trichosporon asahii [36]) | MIC (Aspergillus fumigatus [37]) | MIC (Aspergillus fumigatus [38]) | MIC (Lichtheimia corymbifera [39]) | MIC (Lichtheimia corymbifera [40]) | MIC [41] | MIC [42]

Cn1nnnc1SCn1nnc(-c2cc([N+](=O)[O-])cc([N+](=O)[O-])c2)n1
500 µM: MIC (Enterococcus sp. [17]) | MIC (Enterococcus sp. [18])
> 500 µM: MIC (Staphylococcus aureus [11]) | MIC (Staphylococcus aureus [12]) | MIC (Staphylococcus aureus [13]) | MIC (Staphylococcus aureus [14]) | MIC (Escherichia coli [19]) | MIC (Escherichia coli [20]) | MIC (Klebsiella pneumoniae [21]) | MIC (Klebsiella pneumoniae [22]) | MIC (Klebsiella pneumoniae [23]) | MIC (Klebsiella pneumoniae [24]) | MIC (Pseudomonas aeruginosa [25]) | MIC (Pseudomonas aeruginosa [26]) | MIC (Candida albicans [27]) | MIC (Candida albicans [28]) | MIC (Candida tropicalis [29]) | MIC (Candida tropicalis [30]) | MIC (Pichia kudriavzevii [31]) | MIC (Pichia kudriavzevii [32]) | MIC (Nakaseomyces glabratus [33]) | MIC (Nakaseomyces glabratus [34]) | MIC (Trichosporon asahii [35]) | MIC (Trichosporon asahii [36]) | MIC (Aspergillus fumigatus [37]) | MIC (Aspergillus fumigatus [38]) | MIC (Lichtheimia corymbifera [39]) | MIC (Lichtheimia corymbifera [40]) | MIC [41] | MIC [42]
16 µM: MIC99 (Mycobacterium kansasii [5]) | MIC99 (Mycobacterium kansasii [8])
2 µM: MIC99 [1] | MIC99 [2]
32 µM: MIC99 (Mycobacterium avium [3]) | MIC99 (Mycobacterium avium [4]) | MIC99 (Mycobacterium kansasii [6]) | MIC99 (Mycobacterium kansasii [7]) | MIC99 (Mycobacterium kansasii [9]) | MIC99 (Mycobacterium kansasii [10])
125 µM: MIC [15] | MIC [16]

C[C@@H]1[C@H](O)[C@@H](C)/C=C/C=C/C=C/C=C/C=C/C=C/C=C/[C@H](O[C@@H]2O[C@H](C)[C@@H](O)[C@H](N)[C@@H]2O)C[C@@H]2O[C@](O)(C[C@@H](O)C[C@@H](O)[C@H](O)CC[C@@H](O)C[C@@H](O)CC(=O)O[C@H]1C)C[C@H](O)[C@H]2C(=O)O [AMPHOTERICIN B]
0.27 µM: MIC (Trichosporon asahii [35])
1 µM: MIC (Pichia kudriavzevii [31]) | MIC (Lichtheimia corymbifera [39])
0.54 µM: MIC (Candida albicans [27]) | MIC (Candida tropicalis [29]) | MIC (Nakaseomyces glabratus [33]) | MIC (Aspergillus fumigatus [37]) | MIC [41]

— ChEMBL document CHEMBL4011590, “Structure-activity relationship studies on 3,5-dinitrophenyl tetrazoles as antitubercular agents” (Eur J Med Chem, 2017)
